Results published in BindingDB's records for doi:10.1124/mol.54.2.322 (Georgetown University, 1998).

Assays:
[1] = molecular target: Neuronal acetylcholine receptor subunit alpha-3 (Rattus norvegicus, UniProt P04757)
[2] = molecular target: Nicotinic acetylcholine receptor (Rattus leucopus, UniProt Q62594)
Sequence of Nicotinic acetylcholine receptor (Q62594 whole entry): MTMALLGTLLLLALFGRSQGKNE

Sequence of Neuronal acetylcholine receptor subunit alpha-3 (P04757 whole entry): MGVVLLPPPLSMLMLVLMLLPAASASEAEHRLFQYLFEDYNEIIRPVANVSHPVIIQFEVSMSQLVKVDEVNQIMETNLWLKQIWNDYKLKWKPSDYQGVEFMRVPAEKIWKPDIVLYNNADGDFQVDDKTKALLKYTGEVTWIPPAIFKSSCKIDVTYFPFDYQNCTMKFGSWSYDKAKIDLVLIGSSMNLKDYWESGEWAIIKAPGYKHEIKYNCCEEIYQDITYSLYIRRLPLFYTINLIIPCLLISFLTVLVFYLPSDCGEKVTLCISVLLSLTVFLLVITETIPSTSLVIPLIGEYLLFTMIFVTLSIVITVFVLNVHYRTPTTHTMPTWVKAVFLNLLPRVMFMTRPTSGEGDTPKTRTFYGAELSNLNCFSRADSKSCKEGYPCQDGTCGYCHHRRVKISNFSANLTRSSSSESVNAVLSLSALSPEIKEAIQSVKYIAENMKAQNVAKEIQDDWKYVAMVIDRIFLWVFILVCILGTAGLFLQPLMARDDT

With `CO[C@@H]1CC=C2CCN3CCC4=C(CC(=O)OC4)[C@@]23C1` the Ki [1] was greater than 10 µM.

With `O=c1cccc2n1C[C@H]1CNC[C@H]2C1` [(1S,9R)-7,11-diazatricyclo[7.3.1.0~2,7~]trideca-2,4-dien-6-one] the Ki [1] was 0.195 µM.

For `C[N+](C)(C)CCOC(N)=O` [(2-Hydroxyethyl)trimethyl ammonium chloride carbamate], the Ki [1] was 3.84 µM.

Compound `COc1cc2c3cc1Oc1cc(ccc1O)C[C@H]1c4c(cc(OC)c(O)c4Oc4ccc(cc4)C[C@@H]3N(C)CC2)CC[N+]1(C)C` [CAS_57-94-3] has a Ki [2] of 2.24 µM and a Ki [1] greater than 10 µM.

`C[N+](C)(C)CCCCCC[N+](C)(C)C` [Hexamethoniumdibromide] gave a Ki [2] greater than 10 µM and a Ki [1] greater than 10 µM.
